Measurements reported in paper PMC5218480 (PLoS ONE, 2017).

Tested on: MV-4-11 cells
Assay: Gene expression microarray analysis (Affymetrix PrimeView) and GSEA
Type: cell-based, human
Parameters: RFU PODN (11730768_x_at) / Fold change /veh PODN (11730768_x_at) / RFU LINC00158 (11744669_a_at) / Fold change /veh LINC00158 (11744669_a_at) / RFU DUSP10 (11751237_a_at) / Fold change /veh DUSP10 (11751237_a_at) / RFU ID3 (11757404_x_at) / Fold change /veh ID3 (11757404_x_at) / RFU PLEKHG5 (11737974_s_at) / Fold change /veh PLEKHG5 (11737974_s_at) / RFU LRRC4B (11730491_at) / Fold change /veh LRRC4B (11730491_at) / RFU GIMAP4 (11747438_a_at) / Fold change /veh GIMAP4 (11747438_a_at) / RFU KRT8 (11758183_x_at) / Fold change /veh KRT8 (11758183_x_at) / RFU CNN1 (11734310_a_at) / Fold change /veh CNN1 (11734310_a_at) / RFU VPS37D (11726825_at) / Fold change /veh VPS37D (11726825_at) / RFU C10orf10 (11716522_x_at) / Fold change /veh C10orf10 (11716522_x_at) / RFU KIR2DL2 /// KIR2DL4 /// KIR2DL5A /// KIR2DL5B /// KIR2DS1 /// KIR2DS2 /// KIR2DS3 /// KIR2DS4 /// KIR3DL3 /// KIR3DL3 /// KIR3DS1 (11738374_at) / Fold change /veh KIR2DL2 /// KIR2DL4 /// KIR2DL5A /// KIR2DL5B /// KIR2DS1 /// KIR2DS2 /// KIR2DS3 /// KIR2DS4 /// KIR3DL3 /// KIR3DL3 /// KIR3DS1 (11738374_at) / RFU C1QL1 (11718748_at) / Fold change /veh C1QL1 (11718748_at) / RFU TMPRSS4 (11747572_a_at) / Fold change /veh TMPRSS4 (11747572_a_at) / RFU HAMP (11756126_x_at) / Fold change /veh HAMP (11756126_x_at) / RFU RNFT2 (11725882_a_at) / Fold change /veh RNFT2 (11725882_a_at) / RFU NR4A2 (11747474_a_at) / Fold change /veh NR4A2 (11747474_a_at) / RFU ABCC12 (11746883_a_at) / Fold change /veh ABCC12 (11746883_a_at) / RFU TMEM136 (11760407_x_at) / Fold change /veh TMEM136 (11760407_x_at) / RFU CLDN22 /// WWC2 (11732394_at) / Fold change /veh CLDN22 /// WWC2 (11732394_at) / RFU HLA-DPB1 (11760878_x_at) / Fold change /veh HLA-DPB1 (11760878_x_at) / RFU SPINT1 (11716480_a_at) / Fold change /veh SPINT1 (11716480_a_at) / RFU GAP43 (11754022_s_at) / Fold change /veh GAP43 (11754022_s_at) / RFU A4GNT (11735810_at) / Fold change /veh A4GNT (11735810_at) / RFU PRB3 (11715151_x_at) / Fold change /veh PRB3 (11715151_x_at) / RFU TUBB4B (11761932_at) / Fold change /veh TUBB4B (11761932_at) / RFU CAPN14 (11732068_a_at) / Fold change /veh CAPN14 (11732068_a_at) / RFU TMCC2 (11721928_a_at) / Fold change /veh TMCC2 (11721928_a_at) / RFU IRGQ (11745062_a_at) / Fold change /veh IRGQ (11745062_a_at) / RFU FAM174B (11720279_a_at) / Fold change /veh FAM174B (11720279_a_at) / RFU TMPRSS4 (11748680_a_at) / Fold change /veh TMPRSS4 (11748680_a_at) / RFU FAM212B (11763350_a_at) / Fold change /veh FAM212B (11763350_a_at) / RFU PLEKHG5 (11743358_a_at) / Fold change /veh PLEKHG5 (11743358_a_at) / RFU ZSCAN30 (11745921_a_at) / Fold change /veh ZSCAN30 (11745921_a_at) / RFU CMKLR1 (11741424_a_at) / Fold change /veh CMKLR1 (11741424_a_at) / RFU LOC101060620 /// MAPK8IP1 (11723275_at) / Fold change /veh LOC101060620 /// MAPK8IP1 (11723275_at) / RFU SPTSSB (11747773_x_at) / Fold change /veh SPTSSB (11747773_x_at) / RFU PRSS12 (11739890_at) / Fold change /veh PRSS12 (11739890_at) / RFU BIN1 (11741810_x_at) / Fold change /veh BIN1 (11741810_x_at) / RFU WNT11 (11732464_a_at) / Fold change /veh WNT11 (11732464_a_at) / RFU C10orf10 (11716521_a_at) / Fold change /veh C10orf10 (11716521_a_at) / RFU C5orf56 (11738089_at) / Fold change /veh C5orf56 (11738089_at) / RFU CYB561 (11721691_x_at) / Fold change /veh CYB561 (11721691_x_at) / RFU ANKRD19P (11752326_a_at) / Fold change /veh ANKRD19P (11752326_a_at) / RFU OR2T12 /// OR2T33 /// OR2T8 (11738714_s_at) / Fold change /veh OR2T12 /// OR2T33 /// OR2T8 (11738714_s_at) / RFU VCAN (11748164_a_at) / Fold change /veh VCAN (11748164_a_at) / RFU JSRP1 (11732532_at) / Fold change /veh JSRP1 (11732532_at) / RFU KRTAP10-11 (11738290_x_at) / Fold change /veh KRTAP10-11 (11738290_x_at) / RFU MYO3A (11730013_a_at) / Fold change /veh MYO3A (11730013_a_at) / RFU EBF3 (11725865_a_at) / Fold change /veh EBF3 (11725865_a_at) / RFU CAMK2N1 (11719241_x_at) / Fold change /veh CAMK2N1 (11719241_x_at) / RFU C5orf56 (11738088_a_at) / Fold change /veh C5orf56 (11738088_a_at) / RFU OLFML3 (11715873_a_at) / Fold change /veh OLFML3 (11715873_a_at) / RFU LOC100653217 /// NTM (11731650_a_at) / Fold change /veh LOC100653217 /// NTM (11731650_a_at) / RFU MAPK11 (11762145_a_at) / Fold change /veh MAPK11 (11762145_a_at) / RFU FIZ1 (11724087_x_at) / Fold change /veh FIZ1 (11724087_x_at) / RFU OASL (11726364_x_at) / Fold change /veh OASL (11726364_x_at) / RFU SOX15 (11748057_x_at) / Fold change /veh SOX15 (11748057_x_at) / RFU CD79A (11719716_a_at) / Fold change /veh CD79A (11719716_a_at) / RFU HIST1H1D (11736915_at) / Fold change /veh HIST1H1D (11736915_at) / RFU CASKIN2 (11723855_a_at) / Fold change /veh CASKIN2 (11723855_a_at) / RFU LOC730098 (11760151_x_at) / Fold change /veh LOC730098 (11760151_x_at) / RFU OR4N2 (11742367_at) / Fold change /veh OR4N2 (11742367_at) / RFU PRRT2 (11749266_a_at) / Fold change /veh PRRT2 (11749266_a_at) / RFU SNX32 (11753110_a_at) / Fold change /veh SNX32 (11753110_a_at) / RFU CDHR5 (11726645_a_at) / Fold change /veh CDHR5 (11726645_a_at) / RFU RCAN1 (11760418_a_at) / Fold change /veh RCAN1 (11760418_a_at) / RFU FAM167A (11723789_a_at) / Fold change /veh FAM167A (11723789_a_at) / RFU FAM26E (11764081_at) / Fold change /veh FAM26E (11764081_at) / RFU ISYNA1 (11749810_s_at) / Fold change /veh ISYNA1 (11749810_s_at) / RFU ACY1 (11761880_at) / Fold change /veh ACY1 (11761880_at) / RFU 11764098_at / Fold change /veh 11764098_at / RFU SAMD14 (11745864_x_at) / Fold change /veh SAMD14 (11745864_x_at) / RFU NPB (11741838_a_at) / Fold change /veh NPB (11741838_a_at) / RFU TMPRSS6 (11731388_a_at) / Fold change /veh TMPRSS6 (11731388_a_at) / RFU KRTAP10-2 (11738614_at) / Fold change /veh KRTAP10-2 (11738614_at) / RFU ARHGAP8 /// PRR5-ARHGAP8 (11727945_x_at) / Fold change /veh ARHGAP8 /// PRR5-ARHGAP8 (11727945_x_at) / RFU KRTAP5-7 /// NADSYN1 (11734609_at) / Fold change /veh KRTAP5-7 /// NADSYN1 (11734609_at) / RFU RASL12 (11751679_a_at) / Fold change /veh RASL12 (11751679_a_at) / RFU CDKN2B (11736163_a_at) / Fold change /veh CDKN2B (11736163_a_at) / RFU PRF1 (11729649_at) / Fold change /veh PRF1 (11729649_at) / RFU, ZNF638 /// ZNF638-IT1 / Fold change vs veh, ZNF638 /// ZNF638-IT1 / RFU, PANK3 / Fold change vs veh, PANK3 / RFU, SH3YL1 / Fold change vs veh, SH3YL1 / RFU, ZEB2 / Fold change vs veh, ZEB2 / RFU, NRIP1 / Fold change vs veh, NRIP1 / RFU, PTTG1IP / Fold change vs veh, PTTG1IP / RFU, CAPN2 / Fold change vs veh, CAPN2 / RFU, MED14 / Fold change vs veh, MED14 / RFU, SNORA58 / Fold change vs veh, SNORA58 / RFU, C1orf63 / Fold change vs veh, C1orf63 / RFU, LRRFIP1 / Fold change vs veh, LRRFIP1 / RFU, NDUFAF7 / Fold change vs veh, NDUFAF7 / RFU, SLC12A2 / Fold change vs veh, SLC12A2 / RFU, IBTK / Fold change vs veh, IBTK / RFU, ESF1 / Fold change vs veh, ESF1 / Fold change vs veh, TMEM50B / RFU, TAOK1 / Fold change vs veh, TAOK1 / RFU, ACBD3 / Fold change vs veh, ACBD3 / RFU, TMA16 / Fold change vs veh, TMA16 / RFU, RWDD3 / Fold change vs veh, RWDD3 / RFU, BCAT1 / Fold change vs veh, BCAT1 / RFU, EDEM3 / Fold change vs veh, EDEM3 / RFU, TMEM33 / Fold change vs veh, TMEM33 / RFU, WDR75 / Fold change vs veh, WDR75 / RFU, AHCTF1 / Fold change vs veh, AHCTF1 / RFU, TFRC / Fold change vs veh, TFRC / RFU, ZDHHC17 / Fold change vs veh, ZDHHC17 / RFU, NOM1 / Fold change vs veh, NOM1 / RFU, ARL8B / Fold change vs veh, ARL8B / RFU, ZBTB11 / Fold change vs veh, ZBTB11 / RFU, TAMM41 / Fold change vs veh, TAMM41 / RFU, KIAA1704 /// LOC100996395 / Fold change vs veh, KIAA1704 /// LOC100996395 / RFU, ING1 / Fold change vs veh, ING1 / RFU, TRMT61B / Fold change vs veh, TRMT61B / RFU, FUBP3 / Fold change vs veh, FUBP3 / RFU, TP53 / Fold change vs veh, TP53 / RFU, TNKS2 / Fold change vs veh, TNKS2 / RFU, ZFP14 / Fold change vs veh, ZFP14 / RFU, ACTR2 / Fold change vs veh, ACTR2 / RFU, PPP3R1 / Fold change vs veh, PPP3R1 / RFU, PIK3R1 / Fold change vs veh, PIK3R1 / RFU, HNRNPA1 / Fold change vs veh, HNRNPA1 / RFU, RNF170 / Fold change vs veh, RNF170 / RFU, ZNF28 / Fold change vs veh, ZNF28 / RFU, RNGTT / Fold change vs veh, RNGTT / RFU, OGT / Fold change vs veh, OGT / RFU, BRD1 / Fold change vs veh, BRD1 / RFU, MARS / Fold change vs veh, MARS / RFU, ZNF655 / Fold change vs veh, ZNF655 / RFU, FAHD1 / Fold change vs veh, FAHD1 / RFU, BDP1 / Fold change vs veh, BDP1 / RFU, LRRCC1 / Fold change vs veh, LRRCC1 / RFU, ARID1A / Fold change vs veh, ARID1A / RFU, ZNF146 / Fold change vs veh, ZNF146 / RFU, ZNF330 / Fold change vs veh, ZNF330 / RFU, GPN3 / Fold change vs veh, GPN3 / RFU, C9orf123 / Fold change vs veh, C9orf123 / RFU, N4BP2L2 / Fold change vs veh, N4BP2L2 / RFU, ARFIP1 / Fold change vs veh, ARFIP1 / RFU, FAM179B / Fold change vs veh, FAM179B / RFU, BCL10 / Fold change vs veh, BCL10 / RFU, UHRF1BP1L / Fold change vs veh, UHRF1BP1L / RFU, BET1 / Fold change vs veh, BET1 / RFU, CNOT2 / Fold change vs veh, CNOT2 / RFU, ZNF268 / Fold change vs veh, ZNF268 / Fold change vs veh, ZNF507 / RFU, DGCR2 / Fold change vs veh, DGCR2 / RFU, WDSUB1 / Fold change vs veh, WDSUB1 / Fold change vs veh, HSP90B1 /// MIR3652 / RFU, ADSS / Fold change vs veh, ADSS / RFU, GK / Fold change vs veh, GK / RFU, ZNF148 / Fold change vs veh, ZNF148 / RFU, TAF9 / Fold change vs veh, TAF9 / RFU, SLC1A5 / Fold change vs veh, SLC1A5 / RFU, SLMO2 / Fold change vs veh, SLMO2 / RFU, ABCC4 / Fold change vs veh, ABCC4 / RFU, LOC101060439 /// RAP1B / Fold change vs veh, LOC101060439 /// RAP1B / RFU, RFX7 / Fold change vs veh, RFX7 / RFU, GTPBP10 / Fold change vs veh, GTPBP10 / RFU, CNEP1R1 / Fold change vs veh, CNEP1R1 / RFU, BIVM-ERCC5 /// ERCC5 / Fold change vs veh, BIVM-ERCC5 /// ERCC5 / RFU, ILF3 / Fold change vs veh, ILF3 / RFU 11762660_at / Fold change /veh 11762660_at / RFU VCAN (11757783_s_at) / Fold change /veh VCAN (11757783_s_at) / RFU DDX43 (11728927_at) / Fold change /veh DDX43 (11728927_at) / RFU KRT8 (11758188_x_at) / Fold change /veh KRT8 (11758188_x_at) / RFU NKD1 (11759106_at) / Fold change /veh NKD1 (11759106_at) / RFU SRD5A1 (11742802_a_at) / Fold change /veh SRD5A1 (11742802_a_at) / RFU TPSAB1 /// TPSB2 (11721975_s_at) / Fold change /veh TPSAB1 /// TPSB2 (11721975_s_at) / RFU GSTM3 (11746129_a_at) / Fold change /veh GSTM3 (11746129_a_at) / RFU IL23R (11737362_x_at) / Fold change /veh IL23R (11737362_x_at) / RFU TMEM51 (11727254_a_at) / Fold change /veh TMEM51 (11727254_a_at) / RFU PIWIL2 (11732686_x_at) / Fold change /veh PIWIL2 (11732686_x_at) / RFU ORM1 (11744905_x_at) / Fold change /veh ORM1 (11744905_x_at) / RFU CCDC152 (11743942_at) / Fold change /veh CCDC152 (11743942_at) / RFU ECM1 (11717891_a_at) / Fold change /veh ECM1 (11717891_a_at) / RFU IL23R (11748794_a_at) / Fold change /veh IL23R (11748794_a_at) / RFU TNFAIP8L3 (11732012_x_at) / Fold change /veh TNFAIP8L3 (11732012_x_at) / RFU MBOAT4 (11741988_at) / Fold change /veh MBOAT4 (11741988_at) / RFU 11764193_at / Fold change /veh 11764193_at / RFU TMEM53 (11763286_at) / Fold change /veh TMEM53 (11763286_at) / RFU MAGEB2 (11727129_at) / Fold change /veh MAGEB2 (11727129_at) / RFU TMEM200A (11744735_a_at) / Fold change /veh TMEM200A (11744735_a_at) / RFU CCDC152 (11751479_a_at) / Fold change /veh CCDC152 (11751479_a_at) / RFU FAM211A (11726209_a_at) / Fold change /veh FAM211A (11726209_a_at) / RFU RGS16 (11746705_a_at) / Fold change /veh RGS16 (11746705_a_at) / RFU VCAN (11755009_s_at) / Fold change /veh VCAN (11755009_s_at) / RFU RHOB (11743442_s_at) / Fold change /veh RHOB (11743442_s_at) / RFU RGS16 (11720943_a_at) / Fold change /veh RGS16 (11720943_a_at) / RFU RGS16 (11720944_at) / Fold change /veh RGS16 (11720944_at) / RFU, VPS4B / Fold change vs veh, VPS4B / RFU, CREB1 / Fold change vs veh, CREB1 / RFU, DNAJC13 / Fold change vs veh, DNAJC13 / RFU, GNAQ / Fold change vs veh, GNAQ / RFU, CDK5R1 / Fold change vs veh, CDK5R1 / RFU, ZRANB3 / Fold change vs veh, ZRANB3 / RFU, CUL4A / Fold change vs veh, CUL4A / RFU, CCNY / Fold change vs veh, CCNY / RFU, UFL1 / Fold change vs veh, UFL1 / RFU, COG3 / Fold change vs veh, COG3 / RFU, DIAPH2 / Fold change vs veh, DIAPH2 / RFU, SKA2 / Fold change vs veh, SKA2 / RFU, AFF3 / Fold change vs veh, AFF3 / RFU, LMF1 / Fold change vs veh, LMF1 / RFU, IPO11 / Fold change vs veh, IPO11 / RFU, DFFB / Fold change vs veh, DFFB / RFU, FOXP1 / Fold change vs veh, FOXP1 / RFU, CARD8 / Fold change vs veh, CARD8 / RFU, STRN3 / Fold change vs veh, STRN3 / RFU, ADK / Fold change vs veh, ADK / RFU, RASSF2 / Fold change vs veh, RASSF2 / RFU, WIPF1 / Fold change vs veh, WIPF1 / RFU, LARP1B / Fold change vs veh, LARP1B / RFU, RASA1 / Fold change vs veh, RASA1 / RFU, RB1 / Fold change vs veh, RB1 / RFU, PPFIA1 / Fold change vs veh, PPFIA1 / RFU, MAT2A / Fold change vs veh, MAT2A / RFU, CCT5 / Fold change vs veh, CCT5 / RFU, WDR92 / Fold change vs veh, WDR92 / RFU, CUX1 / Fold change vs veh, CUX1 / RFU, TTC7A / Fold change vs veh, TTC7A / RFU, TMEM135 / Fold change vs veh, TMEM135 / RFU, DEPTOR / Fold change vs veh, DEPTOR / RFU, CPM / Fold change vs veh, CPM / RFU, DNAJB6 / Fold change vs veh, DNAJB6 / RFU, CACNA2D3 / Fold change vs veh, CACNA2D3 / RFU, DTX4 / Fold change vs veh, DTX4 / RFU, TFCP2 / Fold change vs veh, TFCP2 / RFU, GMCL1 /// GMCL1P1 / Fold change vs veh, GMCL1 /// GMCL1P1 / RFU, AEBP2 / Fold change vs veh, AEBP2 / RFU, SNHG1 /// SNORD22 /// SNORD25 /// SNORD26 /// SNORD27 /// SNORD28 /// SNORD29 /// SNORD31 / Fold change vs veh, SNHG1 /// SNORD22 /// SNORD25 /// SNORD26 /// SNORD27 /// SNORD28 /// SNORD29 /// SNORD31 / Fold change (Aza/veh), C12orf56 (ProbeSet 11735607_a_at) / Fold change (ACY-1035/veh), C12orf56 (ProbeSet 11735607_a_at) / Fold change (Aza/veh), FGFR1OP (ProbeSet 11751329_s_at) / Fold change (ACY-1035/veh), FGFR1OP (ProbeSet 11751329_s_at) / Fold change (Aza/veh), VPS36 (ProbeSet 11739960_a_at) / Fold change (ACY-1035/veh), VPS36 (ProbeSet 11739960_a_at) / RFU SYPL1 (11715823_x_at) / Fold change /veh SYPL1 (11715823_x_at) / RFU IGFBP7 (11715501_s_at) / Fold change /veh IGFBP7 (11715501_s_at) / RFU REEP3 (11722064_at) / Fold change /veh REEP3 (11722064_at) / RFU IGLL1 (11728026_x_at) / Fold change /veh IGLL1 (11728026_x_at): dose or concentration left out as unconfirmed
Settings: ProbeSet 11725901_x_at; LIST B

Q: Which “RFU, RWDD3” value does the source give for `Nc1ccc(-c2cccs2)cc1NC(=O)c1ccc2c(c1)cc(C1CC1)n2CCN1CCOCC1` [ACY-1035] here?
A: 19.72 RFU
